# Measured values taken from patent publication US20050020544A1, “Bicyclic CB2 cannabinoid receptor ligands” (priority 2002, published 2005).
# How the values were obtained:
# [1] = target: T1, human CB1 receptor (Homo sapiens, UniProt P21554); assay: biochemical; format: binding; conditions: CB1 IC50
# T1 construct: purchased Perkin Elmer/NEN; host or cells: HEK-293 cells, stably transfected (membranes)
# In short: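 Displacement of [3H]CP55940 from membranes of HEK-293 cells stably expressing human CB1, in 50 mM Tris-HCl, 2.5 mM EDTA, 5 mM MgCl2, 1 mg/ml BSA, pH 7.4, 0.1% DMSO; 1.5 h at 30° C, then filtration.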
# [2] = target: human CB2 receptor (Homo sapiens, UniProt P34972); assay: Adenylylcyclase assay: forskolin-activated cAMP in CB2 transfected HEK-293 cells; format: cell-based; conditions: HEK293, read-out: % inhibition at 1 μM; CB2 receptor transfected HEK-293, 1 μM forskolin
# Method: (§1) Cannabinoids and derivatives bind to G-protein-coupled CB1 and CB2 receptors and exert their activity via the inhibition of adenylylcyclase activity. An adenylylcyclase assay forms a basis for the functional analysis of the compounds by determining their capacity to inhibit or promote forskolin-activated cAMP production. The assay is carried out according to Chin et al. (Chin, C. N. et al., J. Neurochem. 70: 366-73, 1998). Briefly, HEK-293 human kidney cells (ATCC#CRL-1573) stably transfected with either the human CB1 or CB2 receptor (cDNA) were grown in DMEM supplemented with 10% fetal calf serum, 1% Penicillin-Streptomycin and 2 mM L-glutamine. Cells were seeded in 24 wells plate at 5×10^4 cells/well and incubated for 48 hours. Medium was then removed and the adherent cells were washed with PBS. Two hundred μl of serum free medium supplemented with 0.2 mM Ro 20-1724, 0.25% BSA, and 20 mM HEPES was then added to each well. The cells were then activated with 1 μM forskolin in presence of the bicyclic test compounds in concentrations ranging from 10 pM up to 1 μM. The activated cells were then incubated at 37° C. for 20 minutes and the reaction terminated with 1.2 M HCl to a final concentration of 0.1 M. Cells were lyzed by freeze and thaw and the lysate was neutralized with 2 M HEPES, pH 7.5. cAMP was measured in 50 μl aliquots using the [^3H]-cAMP assay system (Amersham).
# (§2) This experiment was first performed on CB2 receptor transfected cells.
# [3] = target: T1, human CB1 receptor; assay: Adenylylcyclase assay: forskolin-activated cAMP in CB1 transfected HEK-293 cells; format: cell-based
# Method: as §1, §2
# [4] = test system: male Sprague-Dawley rats; assay: Chronic constriction nerve injury, neuropathic pain (Von Frey filaments); format: in vivo, rat; conditions: 4 mg/kg i.p., 15 minutes
# From the text: The aim of this study was to assess the potential analgesic effects of the novel bicyclic CB2 binding compounds in an animal model of neuropathic pain. A peripheral monopathy was induced in the right hind limb of rats following a chronic constriction of the sciatic nerve (Bennet, G. J. & Xie, Y-K., Pain 33: 87-107, 1988). The development of mechanical allodyna was monitored using an established behavioral test (Von Frey filaments).
# Pre-surgery baseline values were ascertained as the mean of 2 pre-surgery values. Once the baseline values had been established, the animals were surgically prepared by constricting the right sciatic nerve with 4 chromic cat gut loose ligatures.
# The design was randomized, performed in a masked fashion as to whether drug or vehicle is being given. The animals, male Sprague-Dawley rats (average body weight 240-290 g), were allowed to acclimatize to the behavioral testing equipment prior to testing. On the testing day, the animals, at least six per treatment group, were given i.p. a single dose of one of the test compounds in a volume of 2.5 ml/kg. Fifteen minutes later, a series of Von Frey filaments (pre-calibrated prior to testing) were applied to the plantar surface of the hind paw, from below. The filaments were applied in ascending order starting with the weakest force and the withdrawal threshold for both the ipsilateral and contralateral hind paws was evaluated. Each filament was indented on the mid-plantar surface of the foot to the point where it just starts to bend; this is repeated approximately 8-10 times per filament at a frequency of approximately 1 Hz. The withdrawal threshold is defined as being the lowest force of two or more consecutive Von Frey's filaments to elicit a reflex withdrawal response (i.e. a brief paw flick) and is measured in grams.
# The results are expressed as % increase in the threshold of response to Von Frey's filaments in the test compound treated group versus the vehicle treated animals and per definition the vehicle treated group yields a null baseline value. The black column represents the morphine treated animals (4 mg/kg), the gray and the dotted column bars represent two doses of compound A (0.5 and 1 mg/kg respectively).
# [5] = test system: ICR male mice; assay: Tail flick model for acute peripheral pain, i.p.; format: in vivo, mouse; conditions: 5 mg/kg i.p.
# Method: (§3) ICR male mice (20-30 g average body weight, Harlan, Israel) were injected i.p. at the volume dose of 5 ml/kg. Each treatment group contained at least 6 animals. Morphine HCl was used as positive control at the final dose of 5 mg/kg. Its vehicle, saline, was also included as control. The test compounds were dissolved in CREMOPHOR EL®:ethanol and diluted 1:20 in saline prior to injection, this second type of vehicle was also included as negative control. The final dose injected varied from 0.1 to 10 mg/kg. At predetermined time points after treatment injection, the animals were placed in the tail flick system (Socrel, model DS 20). Animals were gently held while their tails were located above the photoelectric cell. The tails were then illuminated (21V) at 2 cm from the distal tip and the latency time, measured in seconds, was recorded in duplicates. At the end of the study, the animals were euthanized by i.p. injection of 100 mg/kg sodium pentobarbitone.
# Two parameters were used to analyze the results, the latency time and the % of animals showing analgesia. […] The results in both cases are expressed as mean±SE. The differences between the latency times or the % of animals showing analgesia among various treatment groups was analyzed by analysis of variance (ANOVA) followed by post-hoc Tukey's test (for latency) or Fisher's exact test (for % animals). A value of p<0.05 is considered to be statistically significant.
# [6] = test system: Male Sprague Dawley rats; assay: Inflammatory pain: carrageenan paw edema in rats, thermal and mechanical stimuli; format: in vivo, rat; conditions: 5 mg/kg, three hours
# Method: Male Sprague Dawley rats (200 g average body weight, Harlan, Israel) are transiently sedated by placement on dry ice for the duration of the injections. […] Before induction of inflammatory pain and three hours after injection, the animals reactions to pain stimuli were tested in two systems. The first stimulus was thermal and assessed by the Plantar Test according to Hargreaves, using Ugo Basile Model 7370. The scale was set to an intensity of 50 arbitrary units. The latency time till the animal lift a paw as a reaction to the thermal stimulus was recorded for both the inflamed and non-inflamed hind paws. The second stimulus was mechanical (tactile) and assessed using a Dynamic Plantar Sesthesiomether (Ugo Basile Model 73400-002).
# The results are measured as the differences between the two hind paws at time 0 and 3 hours both as ALT, for the latency time in the thermal part of the study, and as ΔForce, for the mechanical part of the study.
# [7] = test system: ICR male mice; assay: Development of tolerance on repeated administration, tail flick model; conditions: 5 mg/kg twice daily i.p.
# Method: as §3
# Tolerance was assessed in the tail flick model above described. Briefly, the test compounds were administered twice daily i.p. for up to 10 days to groups of 10 animals each. The noxious pain threshold was measured as previously described in example 13 thirty minutes after the first drug administration on days 1, 4, 8 and 10. Results are expressed as mean latency time till the animal flicked its tail±SE. The differences between the latency times or the % of animals showing analgesia among various treatment groups was analyzed by analysis of variance (ANOVA) followed by post-hoc Tukey's test (for latency) or Fisher's exact test (for % animals). A value of p<0.05 is considered to be statistically significant.
# T1 sequence (P21554 whole entry): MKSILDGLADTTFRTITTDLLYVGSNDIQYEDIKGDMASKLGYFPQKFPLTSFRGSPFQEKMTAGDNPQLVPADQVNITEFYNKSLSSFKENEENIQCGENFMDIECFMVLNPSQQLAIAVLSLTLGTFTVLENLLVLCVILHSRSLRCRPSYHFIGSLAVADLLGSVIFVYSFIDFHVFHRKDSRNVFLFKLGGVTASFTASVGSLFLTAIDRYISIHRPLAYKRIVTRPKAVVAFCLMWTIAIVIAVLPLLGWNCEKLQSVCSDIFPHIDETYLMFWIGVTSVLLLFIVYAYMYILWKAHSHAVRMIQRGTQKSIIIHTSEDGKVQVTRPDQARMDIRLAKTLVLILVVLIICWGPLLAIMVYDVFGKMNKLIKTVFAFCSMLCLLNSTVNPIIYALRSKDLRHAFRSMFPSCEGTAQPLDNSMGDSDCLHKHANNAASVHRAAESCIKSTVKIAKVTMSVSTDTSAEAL
# Chain of human CB2 receptor (P34972 whole entry): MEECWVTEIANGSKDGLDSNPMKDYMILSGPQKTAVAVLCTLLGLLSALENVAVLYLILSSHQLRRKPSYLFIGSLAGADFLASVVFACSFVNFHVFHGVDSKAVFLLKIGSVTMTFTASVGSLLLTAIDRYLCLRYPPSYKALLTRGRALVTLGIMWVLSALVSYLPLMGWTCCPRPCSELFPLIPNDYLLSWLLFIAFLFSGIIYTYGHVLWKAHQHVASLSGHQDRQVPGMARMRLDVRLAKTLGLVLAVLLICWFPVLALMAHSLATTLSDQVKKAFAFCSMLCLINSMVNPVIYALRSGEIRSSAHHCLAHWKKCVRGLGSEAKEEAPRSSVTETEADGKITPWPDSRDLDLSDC
smiles,measurement,setting,value
"CCCCCCC(C)(C)c1cc(O)c2c(c1)OC(C)(C)[C@@H]1CC=C(CO)C[C@@H]21 [HU-210, 7-hydroxy-Δ^6-tetrahydrocannabinol-1,1-dimethyl-heptyl, reference compound]",IC50,[1],0.39 nM
same,inhibition at 1 µM,[2],50%
same,IC50,[3],0.35 nM
same,inhibition at 1 µM,"[3]; HEK293, CB1 transfected HEK-293, 1 μM forskolin, read-out: maximal inhibition at 1 μM",73%
"CN1CC[C@]23c4c5ccc(O)c4O[C@H]2[C@@H](O)C=C[C@H]3[C@H]1C5 [Morphine, reference compound]","increase in pain threshold (Von Frey) versus vehicle, ipsilateral hind paw",[4],91%
same,latency time,[5]; 30 minutes,7.5 s
same,% animals showing analgesia,[5]; 90 minutes,about 40%
same,latency time,[5]; 90 minutes,3.9 s
same,latency time,[5]; five and a half hour,3.6 s
same,% animals showing increased analgesia,[5]; five and an half hours,17%
same,% animals showing increased analgesia,[5]; half-an hour,88%
same,latency time,[5]; two and a half hour,3.1 s
same,ΔForce (tactile stimulus),[6],2.7 grams
same,ΔLT (thermal stimulus),[6],0 s
same,% of animals showing increased analgesia,[7]; day 10,30%
same,latency time,[7]; day 10,5.8 s
same,% of animals showing increased analgesia,[7]; day one,80%
same,latency time,[7]; day one,7.5 s
